Source: ChEMBL document CHEMBL5550184, “Structure-activity relationships of middle-size cyclic peptides, KRAS inhibitors derived from an mRNA display” (Bioorg Med Chem, 2024)
Positions of bridges follow the written chain, without caps; N, C: chain ends. Non-standard residues stand in square brackets, D forms with d. Residues, ends and D or L forms follow the SMILES beside them. *: point of attachment. hPhe(3-Cl-4-CF3) = N[C@@H](CCc1ccc(C(F)(F)F)c(Cl)c1)C(=O)O; NMeGly(cPent) = CN[C@H](C(=O)O)C1CCCC1; NMeGly(cBu) = CN[C@H](C(=O)O)C1CCC1; NMeCha = CN[C@@H](CC1CCCCC1)C(=O)O; NMeGly(cPr) = CN[C@H](C(=O)O)C1CC1; NMeChg = CN[C@H](C(=O)O)C1CCCCC1; NMeI = CC[C@H](C)[C@H](NC)C(=O)O; NMeD = CN[C@@H](CC(=O)O)C(=O)O; NMeL = CN[C@@H](CC(C)C)C(=O)O; NMeAc5c = CNC1(C(=O)O)CCCC1; NMeV = CN[C@H](C(=O)O)C(C)C; Azetidin(1-yl) = C1CN(*)C1; NMeA = CN[C@@H](C)C(=O)O; Piperidide = C1CCN(*)CC1; Ac5c = NC1(C(=O)O)CCCC1; Aze = O=C(O)[C@@H]1CCN1; Sar = CNCC(=O)O

What was measured:
[1] = Apparent permeability in human Caco-2 cells incubated for 180 mins by LC-MS/MS method; assay type: ADME, cell-based
[2] = Inhibition of biotin-tagged KRAS G12D mutant (unknown origin) to recombinant His-tagged SOS1 (unknown origin) protein-protein interaction incubated for 120 mins by AlphaLISA method; parameters: species or system Homo sapiens
GTPase KRas = GTPase KRas (Homo sapiens, UniProt P01116, G12D); assay: Binding affinity to biotinylated KRAS G12D mutant (unknown origin) incubated for 120 mins by SPR analysis
Sequence of GTPase KRas (P01116 whole entry G12D): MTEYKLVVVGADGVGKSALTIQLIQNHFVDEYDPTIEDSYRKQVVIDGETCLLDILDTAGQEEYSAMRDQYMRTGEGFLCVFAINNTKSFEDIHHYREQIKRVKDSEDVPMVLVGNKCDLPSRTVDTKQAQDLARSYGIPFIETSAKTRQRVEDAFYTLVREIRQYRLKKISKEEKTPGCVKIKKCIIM

ASPC1 = assay: Cytotoxicity against human AsPC1 cells assessed as reduction in cell viability incubated for 7 days by CellTiterGlo Luminescent Cell Viability Assay; assay type: functional, cell-based; conditions: ASPC1, 168 h
[3] = tested on: GTPase KRas (Homo sapiens), P01116 [G12D]; assay: Binding affinity to biotinylated KRAS G12D mutant (unknown origin) assessed as Kon incubated for 120 mins by SPR analysis
Sequence of GTPase KRas (Homo sapiens), P01116 [G12D] (P01116 whole entry G12D, looked up): as the sequence (P01116 whole entry G12D) above

[4] = tested on: GTPase KRas (Homo sapiens), P01116 [G12D]; assay: Binding affinity to biotinylated KRAS G12D mutant (unknown origin) assessed as Koff incubated for 120 mins by SPR analysis

Question: What does the source list for `CC[C@H](C)[C@@H]1NC(=O)[C@H](C)N(C)C(=O)C[C@@H](C(=O)N2CCCCC2)N(C)C(=O)[C@H](C2CCCCC2)N(C)C(=O)C2(CCCC2)NC(=O)[C@@H]2CCCN2C(=O)[C@H](CCc2ccc(C(F)(F)F)c(Cl)c2)NC(=O)CN(C)C(=O)[C@H](CC2CCCCC2)N(C)C(=O)CN(C)C(=O)CN(C)C1=O` ([NMeA]I[Sar][Sar][NMeCha][Sar][hPhe(3-Cl-4-CF3)]P[Ac5c][NMeChg][NMeD]-Piperidide; lactam N-11)?
Answer: Papp at 3 h [1]: 0.56 ×10⁻⁶ cm/s; IC50 [2]: < 2 nM; Kd (GTPase KRas): 0.14 nM; IC50 (ASPC1): 91 nM; K [3]: 1.2 10^6/Ms; K [4]: 1.7 10^-4/s

Question: Which Papp at 3 h [1] does the source give for `CC[C@H](C)[C@@H]1NC(=O)C2(CCCC2)N(C)C(=O)C[C@@H](C(=O)N2CCCCC2)N(C)C(=O)[C@H](C2CCCCC2)N(C)C(=O)C2(CCCC2)NC(=O)[C@@H]2CCCN2C(=O)[C@H](CCc2ccc(C(F)(F)F)c(Cl)c2)NC(=O)CN(C)C(=O)[C@H](CC2CCCCC2)N(C)C(=O)CN(C)C(=O)CN(C)C1=O` ([NMeAc5c]I[Sar][Sar][NMeCha][Sar][hPhe(3-Cl-4-CF3)]P[Ac5c][NMeChg][NMeD]-Piperidide; lactam N-11) here?
Answer: The Papp at 3 h was 0.62 ×10⁻⁶ cm/s.

Question: What about the IC50 [2] of the same compound?
Answer: The IC50 was < 2 nM.

Question: What about the Kd (GTPase KRas) of the same compound?
Answer: The Kd was 0.64 nM.

Question: What about the IC50 (ASPC1) of the same compound?
Answer: The IC50 was 65 nM.

Question: What about the K [3] of the same compound?
Answer: Its K is 3.8 10^5/Ms.

Question: And the K [4]?
Answer: Its K is 2.4 10^-4/s.

Question: For `CC[C@H](C)[C@@H]1NC(=O)[C@H](CC(C)C)N(C)C(=O)C[C@@H](C(=O)N(C)C)N(C)C(=O)[C@H](C2CCCC2)N(C)C(=O)C2(CCCC2)NC(=O)[C@@H]2CCCN2C(=O)[C@H](CCc2ccc(C(F)(F)F)c(Cl)c2)NC(=O)CN(C)C(=O)[C@H](CC2CCCCC2)N(C)C(=O)[C@@H]2CCN2C(=O)[C@H](C)N(C)C1=O` ([NMeL]I[NMeA][Aze][NMeCha][Sar][hPhe(3-Cl-4-CF3)]P[Ac5c][NMeGly(cPent)][NMeD]-NMe2; lactam N-11), which Papp at 3 h [1] is on record?
Answer: The Papp at 3 h was 2.61 ×10⁻⁶ cm/s.

Question: And the IC50 [2]?
Answer: Its IC50 is < 2 nM.

Question: What about the Kd (GTPase KRas) of the same compound?
Answer: The Kd was 0.16 nM.

Question: And the IC50 (ASPC1)?
Answer: Its IC50 is 5.5 nM.

Question: For `CC[C@H](C)[C@@H]1NC(=O)[C@H](CC(C)C)N(C)C(=O)C[C@@H](C(=O)N2CCC2)N(C)C(=O)[C@H](C2CCCC2)N(C)C(=O)C2(CCCC2)NC(=O)[C@@H]2CCCN2C(=O)[C@H](CCc2ccc(C(F)(F)F)c(Cl)c2)NC(=O)CN(C)C(=O)[C@H](CC2CCCCC2)N(C)C(=O)[C@@H]2CCN2C(=O)[C@H](C)N(C)C1=O` ([NMeL]I[NMeA][Aze][NMeCha][Sar][hPhe(3-Cl-4-CF3)]P[Ac5c][NMeGly(cPent)][NMeD]-{Azetidin(1-yl)}; lactam N-11), which Papp at 3 h [1] is on record?
Answer: The Papp at 3 h was 2.66 ×10⁻⁶ cm/s.

Question: What about the IC50 [2] of the same compound?
Answer: Its IC50 is < 2 nM.

Question: And the Kd (GTPase KRas)?
Answer: Its Kd is 0.19 nM.

Question: What about the IC50 (ASPC1) of the same compound?
Answer: The IC50 was 13 nM.

Question: Which Papp at 3 h [1] does the source give for `CC[C@H](C)[C@@H]1NC(=O)[C@H](C2CC2)N(C)C(=O)C[C@@H](C(=O)N2CCCCC2)N(C)C(=O)[C@H](C(C)C)N(C)C(=O)C2(CCCC2)NC(=O)[C@@H]2CCCN2C(=O)[C@H](CCc2ccc(C(F)(F)F)c(Cl)c2)NC(=O)CN(C)C(=O)[C@H](CC2CCCCC2)N(C)C(=O)CN(C)C(=O)CN(C)C1=O` ([NMeGly(cPr)]I[Sar][Sar][NMeCha][Sar][hPhe(3-Cl-4-CF3)]P[Ac5c][NMeV][NMeD]-Piperidide; lactam N-11) here?
Answer: Its Papp at 3 h is 0.46 ×10⁻⁶ cm/s.

Question: And the IC50 [2]?
Answer: Its IC50 is 8.5 nM.

Question: What about the IC50 (ASPC1) of the same compound?
Answer: The IC50 was 720 nM.

Question: Which results are given for `CC[C@H](C)[C@@H]1NC(=O)[C@H](CC(C)C)N(C)C(=O)C[C@@H](C(=O)N2CCCCC2)N(C)C(=O)[C@H](C)N(C)C(=O)C2(CCCC2)NC(=O)[C@@H]2CCCN2C(=O)[C@H](CCc2ccc(C(F)(F)F)c(Cl)c2)NC(=O)CN(C)C(=O)[C@H](CC2CCCCC2)N(C)C(=O)[C@@H]2CCN2C(=O)[C@H](C)N(C)C1=O` ([NMeL]I[NMeA][Aze][NMeCha][Sar][hPhe(3-Cl-4-CF3)]P[Ac5c][NMeA][NMeD]-Piperidide; lactam N-11)?
Answer: Papp at 3 h [1]: 0.97 ×10⁻⁶ cm/s; IC50 [2]: > 1000 nM; IC50 (ASPC1): 5200 nM

Question: Which Papp at 3 h [1] does the source give for `CC[C@H](C)[C@@H]1NC(=O)[C@H](C2CCCC2)N(C)C(=O)C[C@@H](C(=O)N2CCCCC2)N(C)C(=O)[C@H](C(C)C)N(C)C(=O)C2(CCCC2)NC(=O)[C@@H]2CCCN2C(=O)[C@H](CCc2ccc(C(F)(F)F)c(Cl)c2)NC(=O)CN(C)C(=O)[C@H](CC2CCCCC2)N(C)C(=O)CN(C)C(=O)CN(C)C1=O` ([NMeGly(cPent)]I[Sar][Sar][NMeCha][Sar][hPhe(3-Cl-4-CF3)]P[Ac5c][NMeV][NMeD]-Piperidide; lactam N-11) here?
Answer: The Papp at 3 h was 0.75 ×10⁻⁶ cm/s.

Question: What about the IC50 [2] of the same compound?
Answer: Its IC50 is 4.3 nM.

Question: What about the IC50 (ASPC1) of the same compound?
Answer: Its IC50 is 210 nM.

Question: With `CC[C@H](C)[C@@H]1NC(=O)[C@H](CC(C)C)N(C)C(=O)C[C@@H](C(=O)N2CCCCC2)N(C)C(=O)[C@H]([C@@H](C)CC)N(C)C(=O)C2(CCCC2)NC(=O)[C@@H]2CCCN2C(=O)[C@H](CCc2ccc(C(F)(F)F)c(Cl)c2)NC(=O)CN(C)C(=O)[C@H](CC2CCCCC2)N(C)C(=O)[C@@H]2CCN2C(=O)[C@H](C)N(C)C1=O` ([NMeL]I[NMeA][Aze][NMeCha][Sar][hPhe(3-Cl-4-CF3)]P[Ac5c][NMeI][NMeD]-Piperidide; lactam N-11) as the compound, how does the Papp at 3 h [1] read?
Answer: Its Papp at 3 h is 0.75 ×10⁻⁶ cm/s.

Question: And the IC50 [2]?
Answer: The IC50 was 2.8 nM.

Question: And the IC50 (ASPC1)?
Answer: Its IC50 is 48 nM.

Question: What does the source list for `CC[C@H](C)[C@@H]1NC(=O)[C@H](CC(C)C)N(C)C(=O)C[C@@H](C(=O)N2CCCCC2)N(C)C(=O)[C@H](C2CCC2)N(C)C(=O)C2(CCCC2)NC(=O)[C@@H]2CCCN2C(=O)[C@H](CCc2ccc(C(F)(F)F)c(Cl)c2)NC(=O)CN(C)C(=O)[C@H](CC2CCCCC2)N(C)C(=O)[C@@H]2CCN2C(=O)[C@H](C)N(C)C1=O` ([NMeL]I[NMeA][Aze][NMeCha][Sar][hPhe(3-Cl-4-CF3)]P[Ac5c][NMeGly(cBu)][NMeD]-Piperidide; lactam N-11)?
Answer: Papp at 3 h [1]: 0.91 ×10⁻⁶ cm/s; IC50 [2]: 2.5 nM; IC50 (ASPC1): 170 nM

Question: For `CC[C@H](C)[C@@H]1NC(=O)[C@H](C2CCCCC2)N(C)C(=O)C[C@@H](C(=O)N2CCCCC2)N(C)C(=O)[C@H](C(C)C)N(C)C(=O)C2(CCCC2)NC(=O)[C@@H]2CCCN2C(=O)[C@H](CCc2ccc(C(F)(F)F)c(Cl)c2)NC(=O)CN(C)C(=O)[C@H](CC2CCCCC2)N(C)C(=O)CN(C)C(=O)CN(C)C1=O` ([NMeChg]I[Sar][Sar][NMeCha][Sar][hPhe(3-Cl-4-CF3)]P[Ac5c][NMeV][NMeD]-Piperidide; lactam N-11), which Papp at 3 h [1] is on record?
Answer: The Papp at 3 h was 0.37 ×10⁻⁶ cm/s.

Question: What about the IC50 [2] of the same compound?
Answer: The IC50 was 7.8 nM.

Question: And the IC50 (ASPC1)?
Answer: The IC50 was 650 nM.

Question: With `CC[C@H](C)[C@@H]1NC(=O)[C@H](CC(C)C)N(C)C(=O)C[C@@H](C(=O)N2CCCCC2)N(C)C(=O)[C@H](C2CCCCC2)N(C)C(=O)C2(CCCC2)NC(=O)[C@@H]2CCCN2C(=O)[C@H](CCc2ccc(C(F)(F)F)c(Cl)c2)NC(=O)CN(C)C(=O)[C@H](CC2CCCCC2)N(C)C(=O)[C@@H]2CCN2C(=O)[C@H](C)N(C)C1=O` ([NMeL]I[NMeA][Aze][NMeCha][Sar][hPhe(3-Cl-4-CF3)]P[Ac5c][NMeChg][NMeD]-Piperidide; lactam N-11) as the compound, how does the Papp at 3 h [1] read?
Answer: The Papp at 3 h was 0.97 ×10⁻⁶ cm/s.

Question: And the IC50 [2]?
Answer: The IC50 was < 2 nM.

Question: What about the IC50 (ASPC1) of the same compound?
Answer: The IC50 was 140 nM.

Question: For `CC[C@H](C)[C@@H]1NC(=O)[C@H](CC(C)C)N(C)C(=O)C[C@@H](C(=O)N2CCCCC2)N(C)C(=O)[C@H](C(C)C)N(C)C(=O)C2(CCCC2)NC(=O)[C@@H]2CCCN2C(=O)[C@H](CCc2ccc(C(F)(F)F)c(Cl)c2)NC(=O)CN(C)C(=O)[C@H](CC2CCCCC2)N(C)C(=O)CN(C)C(=O)CN(C)C1=O` ([NMeL]I[Sar][Sar][NMeCha][Sar][hPhe(3-Cl-4-CF3)]P[Ac5c][NMeV][NMeD]-Piperidide; lactam N-11), which Papp at 3 h [1] is on record?
Answer: Its Papp at 3 h is 1.12 ×10⁻⁶ cm/s.

Question: And the IC50 [2]?
Answer: The IC50 was 6 nM.

Question: And the IC50 (ASPC1)?
Answer: Its IC50 is 120 nM.
